Assay results as given in patent US12516052B2, “Methyltransferase 5 (PRMT5) inhibitors and methods of treatment” (THE TRUSTEES OF INDIANA UNIVERSITY, priority 2016, dated 2026).
“Also recorded” adds a separate entry of the source.

What was measured:
[1] = system: PANC1 pancreatic cancer cells; experiment: MTT cell viability assay in PANC1 cells; assay type: cell-based; conditions: for IC50: 4 days treatment
Experimental: (§1) The PRMT5 inhibitory activity of the compounds from the screen was confirmed using both AlphaLISA and an MTT [(3-(4,5-dimethylthiazolyl-2)-2,5-diphenyltetrazolium bromide)] assay (PerkinElmer, Waltham, MA). For the MTT assay, cells were seeded at 90% confluence in 96-well plates and titrated with different dosages of compound (IIa) for 4 days. Media was then removed and 100 μl of MTT (Sigma-Aldrich, St. Louis, MO) was added per well. Cells were incubated for 2 hours at 37° C. before adding 100 μl of DMSO to each well and quantified with the SYNERGY™ H1 Multi-Mode Reader (BioTek Instruments Inc., Winooski, VT).
(§2) In order to identify small-molecule PRMT5 inhibitors with increased efficacy compared to compound (IIa), lead optimization of compound (IIa) was performed. Briefly, the pyrozolo-pyrimidine core was maintained and peripheral groups were either added or modified. Compounds were tested to identify PRMT5 inhibitors and their corresponding IC50 values using an MTT assay. For the MTT assay cells (HT-29 or PANC1) were seeded at 90% confluence in 96-well plates and titrated with different dosages of compound (IIa) for 4 days. Media was then removed and 100 μl of MTT (Sigma-Aldrich) was added per well. Cells were incubated for 2 hours at 37° C. before adding 100 μl of DMSO to each well and quantified with the Synergy H1 Multi-Mode Reader (BioTek Instruments Inc., Winooski, VT).

HT-29 colon cancer cells = experiment: MTT cell viability assay in HT-29 cells; assay type: cell-based; conditions: for IC50: 4 days treatment
Experimental: as §1, §2

PRMT5 = biological target: T1, PRMT5 (Homo sapiens, UniProt O14744); experiment: AlphaLISA PRMT5 methylation assay (biotin-histone H4R3, SAM); assay type: biochemical; conditions: PRMT5 methylation of histone H4R3, in vitro; read-out: IC50 using AlphaLISA
T1 construct: Flag; made in house; host or cells: 293 cells
Experimental: FIG. 1 is a schematic illustration of the AlphaLISA technique for the identification of small-molecule PRMT5 inhibitors. Biotinylated substrate (histone H4) is incubated with PRMT5 and methyl donor, S-adenosyl-1-methionine (SAM). PRMT5 symmetrically dimethylates the third arginine (R3) on biotin-H4 to form biotin-H4R3me2. This product is recognized by Acceptor beads specific for this methylation site. Donor beads have a streptavidin tag and bind to biotin-H4. Interaction between the Acceptor and Donor beads emits a chemiluminescent signal, which is detected by an ENVISION™ Reader (PerkinElmer, Waltham, MA). The methylation activity of PRMT5 is proportional to the intensity of this signal.
In order to identify PRMT5 inhibitors, the AlphaLISA technique (PerkinElmer, Waltham, MA) was adapted to an assay that could precisely quantify PRMT5 dimethylation of its substrate in a 384-well HTS platform (FIG. 1). The AlphaLISA high-throughput screen comprises incubating a biotinylated substrate (e.g., histone H4), PRMT5, and a methyl donor (e.g., S-adenosyl-1-methionine (SAM)); PRMT5 dimethylates the biotinylated substrate and the dimethylated biotinylated substrate is recognized by Acceptor beads specific for the methylation site. Donor beads comprising a tag (e.g., streptavadin) bind to the biotinylated substrate, and interaction between the Acceptor beads and Donor beads emits a signal (e.g., chemiluminescent signal), which can be detected. The methylation activity of PRMT5 is proportional to the intensity of the signal.
In one embodiment of the method used to identify the compounds disclosed herein, PRMT5 enzyme was purified with anti-Flag-M2 beads (Sigma-Aldrich, St. Louis, MO) from 293 cells overexpressing the Flag-PRMT5 protein (Wei et al., Proc Natl Acad Sci USA, 2013; 110: 13516-13521). The enzyme prep was diluted at 1:10 in assay buffer (30 mM Tris, pH 8.0, 1 mM DTT, 0.01% BSA, 0.01% Tween-20) before use. […] The plates were read using an ENVISION™ Reader (PerkinElmer, Waltham, MA).

[2] = system: PDAC cells (PANC1, MiaPaCa2 and AsPC1); experiment: MTT cell viability assay in PDAC cell lines; assay type: cell-based; conditions: for cell viability in PDAC cells (PANC1, MiaPaCa2, AsPC1), MTT: increasing concentrations; for IC50: range over PANC1, MiaPaCa2 and AsPC1
Experimental: (§3) The PRMT5 inhibitory activity of the compounds from the screen was confirmed using both AlphaLISA and an MTT [(3-(4,5-dimethylthiazolyl-2)-2,5-diphenyltetrazolium bromide)] assay (PerkinElmer, Waltham, MA). For the MTT assay, cells were seeded at 90% confluence in 96-well plates and titrated with different dosages of compound (IIa) for 4 days. Media was then removed and 100 μl of MTT (Sigma-Aldrich, St. Louis, MO) was added per well. Cells were incubated for 2 hours at 37° C. before adding 100 μl of DMSO to each well and quantified with the SYNERGY™ H1 Multi-Mode Reader (BioTek Instruments Inc., Winooski, VT). The expression of PRMT5 was examined in pancreatic ductal adenocarcinoma cells at multiple stages of disease progression and in multiple colorectal cancer cell lines. Pancreatic control (HPNE) and cancer cell lines (PANC1, MiaPaCa2 and AsPC1) were grown in Dulbecco's Modified Eagle Medium (DMEM) (GE Healthcare, Little Chalfont, UK), supplemented with 1% of penicillin/streptomycin, 10% fetal bovine serum (FBS). Colon control (FHC) and cancer (HT29, HCT116, and DLD1) cell lines were maintained in RPMI 1640 Medium (Roswell Park Memorial Institute Medium) (GE Healthcare, Little Chalfont, UK), containing 1% penicillin/streptomycin and 10% FBS, while FHC cells were cultured under the same condition with further addition of 25 mM HEPES (4-(2-hydroxyethyl)-1-piperazineethanesulfonic acid), 10 ng/ml cholera toxin, 0.005 mg/ml insulin, 0.005 mg/ml transferring, and 100 ng/ml hydrocortisone. All cell lines were cultured at 37° C. under 5% CO2. The PDAC and CRC cell lines described above were treated with increasing concentrations of compound (IIa) or the commercially available PRMT5 inhibitor EPZ015666 [drawing 12] and quantified for cell viability using the MTT assay described above. […] A soft agar experiment was also performed to determine the effect of compound (IIa) on colony growth.

[3] = system: CRC cells (HT29, HCT116 and DLD1); experiment: MTT cell viability assay in CRC cell lines; assay type: cell-based; conditions: for cell viability in CRC cells (HT29, HCT116, DLD1), MTT: increasing concentrations; for IC50: range over HT29, HCT116 and DLD1
Experimental: as §3

PANC1 cells = experiment: PANC1 subcutaneous xenograft tumor efficacy study in NSG mice; assay type: in vivo; conditions: 20 mg/kg intraperitoneally 3×/week, vs vehicle control, n=4
Experimental: (§4) NSG (NOD scid gamma) mice were obtained from the In Vivo Therapeutics Core at Indiana University School of Medicine. After acclimation for 7 days, NSG mice (6-8 weeks old) were xenografted with mycoplasma-free PANC1 or HT29 cells subcutaneously (1×10^7 PANC1 or 3×10^6 HT29 cells used per mouse in 0.2 ml of a 1:1 mix of phosphate-buffered saline and MATRIGEL™) (BD Biosciences, San Jose, CA). Mice were randomized when tumor volumes reached about 100 mm^3. Mice were treated with either vehicle control or 20 mg/kg of compound (Ia) (drug stock dissolved in 1:1 CREMOPHOR™:ethanol solution) intraperitoneally 3 times per week. Tumor volumes and body weights were measured twice a week. The study was performed in accordance with the guidelines and standards of the Institutional Animal Care and Use Committee (IACUC). […] NSG (NOD scid gamma) mice were obtained from the In Vivo Therapeutics Core at Indiana University School of Medicine. After acclimation for 7 days, NSG mice (6-8 weeks old) were xenografted with mycoplasma-free PANC1 or HT29 cells subcutaneously (1×10^7 PANC1 or 3×10^6 HT29 cells used per mouse in 0.2 ml of a 1:1 mix of phosphate-buffered saline and MATRIGEL™) (BD Biosciences, San Jose, CA). Mice were randomized when tumor volumes reached about 100 mm^3. […] Tumor volumes and body weights were measured twice a week. […]

HT29 cells = experiment: HT29 subcutaneous xenograft tumor efficacy study in NSG mice; assay type: in vivo; conditions: 20 mg/kg intraperitoneally 3×/week, vs vehicle control, n=4
Experimental: as §4

[4] = Body weight of xenografted NSG mice during treatment; assay type: in vivo; conditions: 20 mg/kg intraperitoneally 3×/week, over the course of treatment
Experimental: NSG (NOD scid gamma) mice were obtained from the In Vivo Therapeutics Core at Indiana University School of Medicine. After acclimation for 7 days, NSG mice (6-8 weeks old) were xenografted with mycoplasma-free PANC1 or HT29 cells subcutaneously (1×10^7 PANC1 or 3×10^6 HT29 cells used per mouse in 0.2 ml of a 1:1 mix of phosphate-buffered saline and MATRIGEL™) (BD Biosciences, San Jose, CA). Mice were randomized when tumor volumes reached about 100 mm^3. Mice were treated with either vehicle control or 20 mg/kg of compound (Ia) (drug stock dissolved in 1:1 CREMOPHOR™:ethanol solution) intraperitoneally 3 times per week. Tumor volumes and body weights were measured twice a week. The study was performed in accordance with the guidelines and standards of the Institutional Animal Care and Use Committee (IACUC). […] NSG (NOD scid gamma) mice were obtained from the In Vivo Therapeutics Core at Indiana University School of Medicine. After acclimation for 7 days, NSG mice (6-8 weeks old) were xenografted with mycoplasma-free PANC1 or HT29 cells subcutaneously (1×10^7 PANC1 or 3×10^6 HT29 cells used per mouse in 0.2 ml of a 1:1 mix of phosphate-buffered saline and MATRIGEL™) (BD Biosciences, San Jose, CA). Mice were randomized when tumor volumes reached about 100 mm^3. Mice were treated with either vehicle control or 20 mg/kg of compound (IIa) (drug stock dissolved in 1:1 CREMOPHOR™:ethanol solution) intraperitoneally 3 times per week. Tumor volumes and body weights were measured twice a week. The study was performed in accordance with the guidelines and standards of the Institutional Animal Care and Use Committee (IACUC).

NF-κB [5] = experiment: NF-κB luciferase assay in PANC1 cells; assay type: cell-based; conditions: increasing concentrations
Source text: (§5) Previously, it was discovered that PRMT5 activates NF-κB through methylation of its p65 subunit in HEK293 cells (Wei et al., Proc Natl Acad Sci USA, 2013; 110: 13516-13521; Wei et al., Cell Cycle, 2013; 13: 32-41). As shown in FIGS. 11A and 11B, overexpression of PRMT5 enhances NF-κB activity, while PRMT5 knockdown causes the opposite effect in both PANC1 (FIG. 11A) and HT-29 (FIG. 11B) cells. To determine if compound (IIa) decreases NF-κB activity, cells transfected with a NF-κB luciferase construct were treated with increasing concentrations of compound (IIa) or the control compound EPZ015666.

NF-κB [6] = experiment: NF-κB luciferase assay in HT29 cells; assay type: cell-based; conditions: increasing concentrations
Source text: as §5

T1 sequence (O14744 whole entry): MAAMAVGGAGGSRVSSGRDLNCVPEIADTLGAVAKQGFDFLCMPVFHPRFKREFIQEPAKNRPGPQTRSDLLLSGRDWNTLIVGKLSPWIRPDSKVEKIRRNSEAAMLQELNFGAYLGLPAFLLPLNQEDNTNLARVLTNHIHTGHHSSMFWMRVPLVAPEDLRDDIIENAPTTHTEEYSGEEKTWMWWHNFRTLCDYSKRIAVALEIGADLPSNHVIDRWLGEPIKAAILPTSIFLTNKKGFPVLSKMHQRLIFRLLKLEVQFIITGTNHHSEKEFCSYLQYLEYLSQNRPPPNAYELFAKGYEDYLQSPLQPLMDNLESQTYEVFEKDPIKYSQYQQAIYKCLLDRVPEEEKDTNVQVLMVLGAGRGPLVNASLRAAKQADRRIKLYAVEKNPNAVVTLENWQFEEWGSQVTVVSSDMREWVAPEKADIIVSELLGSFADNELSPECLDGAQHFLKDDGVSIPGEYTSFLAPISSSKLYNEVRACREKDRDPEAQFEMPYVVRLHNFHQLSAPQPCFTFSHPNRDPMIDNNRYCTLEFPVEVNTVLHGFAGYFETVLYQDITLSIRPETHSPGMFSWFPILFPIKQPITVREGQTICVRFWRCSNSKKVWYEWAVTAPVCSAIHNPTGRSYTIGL
T1 sequence (Q9BQA1 whole entry partner): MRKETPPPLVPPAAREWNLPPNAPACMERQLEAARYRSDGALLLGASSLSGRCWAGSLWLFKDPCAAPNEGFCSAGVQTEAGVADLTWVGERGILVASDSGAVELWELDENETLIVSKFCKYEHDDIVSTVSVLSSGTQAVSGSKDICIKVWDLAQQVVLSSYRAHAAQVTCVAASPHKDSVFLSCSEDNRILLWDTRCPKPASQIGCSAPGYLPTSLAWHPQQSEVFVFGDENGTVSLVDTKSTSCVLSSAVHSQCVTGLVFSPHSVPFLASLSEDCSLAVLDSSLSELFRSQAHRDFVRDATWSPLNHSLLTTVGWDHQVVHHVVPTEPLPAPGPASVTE

## Clc1ccc(-n2ncc3c(NCC4CCCO4)nc(Cl)nc32)cc1 (centres unmarked) [compound (If)]
[1]; Homo sapiens, PANC-1, 96 h
  IC50: 8 µM
HT-29 colon cancer cells; Homo sapiens, HT-29, 96 h
  IC50: 7 µM

## O=C(NC[C@H]1C[C@@H]2CC[N@@]1C[C@@H]2CN1CCC(Cc2ccccc2)CC1)c1ccc2c(c1)OCO2 [compound (IIIa)]
PRMT5
  IC50: ~1.5 µM
[2]
  cell viability in PDAC cells (PANC1, MiaPaCa2, AsPC1), MTT: decreased significantly
  IC50: 8.5 to 12.5 µM
[3]
  cell viability in CRC cells (HT29, HCT116, DLD1), MTT: decreased significantly
  IC50: 5 to 11 µM

## COc1cc(C)c(Oc2cc(C)cc(O)c2O)c(O)c1 [compound (IVa)]
PRMT5
  IC50: ~16.5 µM
[2]
  cell viability in PDAC cells (PANC1, MiaPaCa2, AsPC1), MTT: decreased significantly
  IC50: 22 to 51 µM
[3]
  cell viability in CRC cells (HT29, HCT116, DLD1), MTT: decreased significantly
  IC50: 35 to 50 µM

## Cc1ccc(-n2ncc3c(NCc4cccnc4)nc(Cl)nc32)cc1 [compound (Ia)]
[1]; increasing concentrations
  cell viability in PDAC cells (PANC1), MTT: decreased significantly
PANC1 cells
  tumor growth (tumor volume), PANC1 xenograft: significant tumor inhibition effect; also recorded: inhibition of tumor growth
HT29 cells
  tumor growth (tumor volume), HT29 xenograft: significant tumor inhibition effect; also recorded: inhibition of tumor growth
[4]
  body weight, HT29 model: did not visibly affect the body weight; also recorded: no significant changes in body weight
  body weight, PANC1 model: did not visibly affect the body weight; also recorded: no significant changes in body weight
HT-29 colon cancer cells
  IC50: 2.2 µM
HT-29 colon cancer cells; Homo sapiens, HT-29, 96 h
  IC50: 2 µM
HT-29 colon cancer cells; increasing concentrations
  cell viability in CRC cells (HT29), MTT: decreased significantly

## Clc1ccc(-n2ncc3c(NCC4CCCO4)nc(Cl)nc32)cc1 (centres unmarked) [compound (Ig)]
[1]
  IC50: 11 µM
HT-29 colon cancer cells
  IC50: 7 µM

## Clc1ccc(-n2ncc3c(NCCN4CCCC4)nc(Cl)nc32)cc1 [compound (Ib)]
[1]; Homo sapiens, PANC-1, 96 h
  IC50: 11 µM

## O=C(NC[C@H](O)CN1CCc2ccccc2C1)c1cc(NC2COC2)ncn1 [EPZ015666, reference compound]
NF-κB [5]
  NF-κB activation (luciferase), PANC1: much higher concentration; also recorded: needed a higher concentration
NF-κB [6]
  NF-κB activation (luciferase), HT29: much higher concentration; also recorded: needed a higher concentration
[2]
  cell viability in PDAC cells (PANC1, MiaPaCa2, AsPC1), MTT: lower efficacy
  IC50: 50 to 95 µM
[3]
  cell viability in CRC cells (HT29, HCT116, DLD1), MTT: lower efficacy
  IC50: 180 to 195 µM
